Experimental data from patent US9174979B2, “Phenanthroindolizidine compound and NFκB inhibitor containing same as active ingredient” (KABUSHIKI KAISHA YAKULT HONSHA, priority 2008, dated 2015).
Converted amounts (≈) assume the structure as drawn. Where two headings read alike, the source gives them in different places.

Assays:
[1] = tested on: human non-small cell lung cancer A549 cells; assay: Inhibitory action on the proliferation of A549 cells; type: cell-based; conditions: 96 hours culture, TetraColor ONE; for IC50: Homo sapiens, A549
Protocol: (§1) The action of the phenanthroindolizidine alkaloid compound of the present invention on the proliferation of human colon cancer SW480 cells, HT-29 cells, and human non-small cell lung cancer A549 cells was studied. The SW480 cells were suspended in a 10% FBS/RPMI1640 and then seeded in a 96-well microplate, followed by culturing in 5% CO2 at 37° C. (2000 cells/well). The A549 cells and the HT-29 cells were each suspended in a DMEM medium containing 10% FBS, 100 U/mL penicillin, and 100 μg/mL streptomycin (10% FBS/DMEM) and a DMEM F-12 HAM medium containing 10% FBS, 100 U/mL penicillin, and 100 μg/mL streptomycin (10% FBS/DMEM F12 HAM), and then seeded in 96-well microplates, followed by culturing in 5% CO2 at 37° C. (1000 cells/well). After an overnight culture, the compound of the present invention was added, followed by further culturing for 48 hours (SW480 cells) and 96 hours (A549 cells and HT-29 cells). After culturing, the number of viable cells was counted using TetraColor ONE (Seikagaku Corporation) in accordance with the attached operating procedure. The results were expressed as the concentration of a test compound needed for 50% inhibition of the proliferation of the cells (IC50).

[2] = tested on: human colon cancer SW480 cells; assay: Inhibitory action on the proliferation of SW480 cells; type: cell-based; conditions: 48 hours culture, TetraColor ONE; for IC50: Homo sapiens, SW480
Protocol: as §1

SV40 promoter = SV40 promoter luciferase reporter assay in SW480/SV40-Luc cells; type: cell-based, human; conditions: for IC50: Homo sapiens
Source text: (§2) The action of the phenanthroindolizidine alkaloid compound of the present invention on the NFκB activity was studied in a luciferase assay. Human colon cancer SW480 cells were transfected with pNFκB-Luc Plasmid (Stratagene), which is a reporter vector in which a five-time tandem repeat of the NFκB responsive element (NRE) is integrated into the upstream of the luciferase gene, using Lipofectamine 2000 (Invitrogen Corporation) in accordance with the attached operating procedure. Subsequently, the cells were cultured in an RPMI1640 medium containing 10% FBS, 100 U/mL penicillin, 100 μg/mL streptomycin, and 0.5 mg/mL G418 to produce SW480 cells having the luciferase gene, the expression of which is regulated by NRE, stably introduced therein (SW480/NRE-Luc cells). Likewise, SW480 cells were transfected with pGL3-Control Vector (Promega Corporation), which is a reporter vector in which the SV40 promoter is integrated into the upstream of the luciferase gene, to produce SW480 cells having the luciferase gene, the expression of which is regulated by the SV40 promoter, stably introduced therein (SW480/SV40-Luc cells). The SW480/NRE-Luc cells or the SW480/SV40-Luc cells were suspended in an RPMI1640 medium containing 10% FBS, 100 U/mL penicillin, and 100 μg/mL streptomycin (10% FBS/RPMI1640), and then seeded in a 96-well microplate, followed by culturing under conditions of 5% CO2 and at 37° C. (5000 cells/well). After an overnight culture, the compound of the present invention was added, followed by culturing for one hour. Further, 50 ng/mL TNFα (Sigma-Aldrich Corporation) was added, followed by culturing for four hours. Subsequently, a Steady-Glo Luciferase Assay reagent (Promega Corporation) was added, and the luminescent intensity was detected by SpectraMax M5e (Molecular Devices, Inc.) to measure the intracellular luciferase activity. It is to be noted that the action of the compound of the present invention on the NFκB activity or the SV40 promoter activity was shown as IC50 values (the concentration of a test compound needed for 50% inhibition of the induction of the luciferase expression).

NFκB = NFκB luciferase reporter assay in SW480/NRE-Luc cells stimulated with TNFα; type: cell-based, human; conditions: for IC50: Homo sapiens
Source text: as §2

[3] = tested on: human colon cancer HT-29 cells; assay: Inhibitory action on the proliferation of HT-29 cells; type: cell-based; conditions: 96 hours culture, TetraColor ONE; for IC50: Homo sapiens, HT-29
Protocol: as §1

mice = assay: Animal toxicity test in mice transplanted with Meth A cells; type: in vivo, mouse; conditions: intravenous on days 1, 5, 9, observed for three weeks
Protocol: Also, the toxicity of known phenanthroindolizidine alkaloid compounds in mice, namely (12aS,13S)-6,7-dimethoxy-9,10,11,12,12a,13-hexahydro-9a-aza-cyclopenta[b]triphenylene-3,13-diol (known compound 1; refer to WO01/023384) and (12aS,13S)-3,6,7-trimethoxy-9,10,11,12,12a,13-hexahydro-9a-aza-cyclopenta[b]triphenylene-13-ol (known compound 2; refer to Planta Med., 2002, 68: 186-188), was simultaneously studied. To a control group, a physiological saline solution as a solvent, was administered.

[4] = SW480, read-out: SV40 promoter inhibitory activity IC50
[5] = SW480, read-out: NFκB inhibitory activity IC50
[6] = SW480/SV40-Luc cells, luciferase expression
[7] = SW480/NRE-Luc cells, 50 ng/mL TNFα, luciferase expression

Row | Molecule | IC50 [1] | IC50 [2] | IC50 (SV40 promoter; [4]) | IC50 (NFκB; [5]) | IC50 [3] | A549 proliferation inhibitory action IC50 [1] | SW480 proliferation inhibitory action IC50 [2] | SV40 promoter inhibitory activity IC50 (SV40 promoter; [6]) | NFκB inhibitory activity IC50 (NFκB; [7]) | HT-29 proliferation inhibitory action IC50 [3] | other results
1 | COc1cc2c3c(c4ccc(O)cc4c2c(OC)c1OC)[C@@H](O)[C@H]1CCCN1C3.Cl [Compound 2, (12aR,13R)-5,6,7-trimethoxy-9,10,11,12,12a,13-hexahydro-9a-aza-cyclopenta[b]triphenylene-3,13-diol hydrochloride] | 0.0025 µg/mL | 0.0036 µg/mL | > 1 µg/mL | 0.001 µg/mL | 0.0047 µg/mL |  |  |  |  |  | 
2 | Cl.Oc1ccc2c3c(c4ccc(F)cc4c2c1)CN1CCC[C@H]1[C@H]3O [Compound 4, (12aS,13S)-6-fluoro-9,10,11,12,12a,13-hexahydro-9a-aza-cyclopenta[b]triphenylene-3,13-diol hydrochloride] | 0.152 µg/mL | 0.503 µg/mL | > 10 µg/mL | 0.286 µg/mL | 0.218 µg/mL |  |  |  |  |  | 
3 | COc1cc2c3c(c4ccc(O)cc4c2cc1OC)C(N)[C@@H]1CCCN1C3.Cl (stereo partly drawn) [Compound 7, (S)-13-amino-6,7-dimethoxy-9,10,11,12,12a,13-hexahydro-9a-aza-cyclopenta[b]triphenylene-3-ol hydrochloride] | 0.265 µg/mL | 2.34 µg/mL | > 10 µg/mL | 0.468 µg/mL | 0.243 µg/mL |  |  |  |  |  | 
4 | CCOc1cc2c3c(c4ccc(O)cc4c2cc1OCC)C[C@@H]1CCCN1C3.Cl [Compound 14, (S)-6,7-diethoxy-9,10,11,12,12a,13-hexahydro-9a-aza-cyclopenta[b]triphenylene-3-ol hydrochloride] | 0.0021 µg/mL | 0.0154 µg/mL | > 1 µg/mL | 0.0047 µg/mL | 0.0121 µg/mL |  |  |  |  |  | 
5 | COc1cc2c3c(c4ccc(O)c(Cl)c4c2cc1OC)C[C@@H]1CCCN1C3.CS(=O)(=O)O [Compound 22, (S)-4-chloro-6,7-dimethoxy-9,10,11,12,12a,13-hexahydro-9a-aza-cyclopenta[b]triphenylene-3-ol methanesulfonate] |  |  |  |  |  | 0.00071 µg/mL | 0.0006 µg/mL | >0.1 µg/mL | 0.00041 µg/mL | 0.0041 µg/mL | 
6 | COc1cc2c3c(c4cc(C)c(O)c(C)c4c2cc1OC)C[C@@H]1CCCN1C3.CS(=O)(=O)O [Compound 26, (S)-6,7-dimethoxy-2,4-dimethyl-9,10,11,12,12a,13-hexahydro-9a-aza-cyclopenta[b]triphenylene-3-ol methanesulfonate] |  |  |  |  |  | 0.1002 µg/mL | 0.0321 µg/mL | >10 µg/mL | 0.0597 µg/mL | 0.05 µg/mL | 
7 | COc1ccc2c3c(c4cc(OC)c(OC)cc4c2c1)CN1CCC[C@H]1[C@H]3O [Known Compound 2, (12aS,13S)-3,6,7-trimethoxy-9,10,11,12,12a,13-hexahydro-9a-aza-cyclopenta[b]triphenylene-13-ol, reference compound] |  |  |  |  |  |  |  |  |  |  | Mortality rate (mice; total dose 25 mg/kg, 25 mg/kg): 2/5; Mortality rate (mice; total dose 25 mg/kg, listed as known compound 2, 25 mg/kg): some of the mice also died; Mortality rate (mice; total dose 50 mg/kg, 50 mg/kg): 5/5; Mortality rate (mice; total dose 50 mg/kg, listed as known compound 2, 50 mg/kg): all the mice died
8 | COc1cc2c3c(c4ccc(O)cc4c2cc1OC)[C@H](O)[C@@H]1CCCN1C3 [Known compound 1, (12aS,13S)-6,7-dimethoxy-9,10,11,12,12a,13-hexahydro-9a-aza-cyclopenta[b]triphenylene-3,13-diol, reference compound] |  |  |  |  |  |  |  |  |  |  | Mortality rate (mice; total dose 25 mg/kg): 0/5; Mortality rate (mice; total dose 50 mg/kg, 50 mg/kg): 5/5; Mortality rate (mice; total dose 50 mg/kg, listed as known compound 1, 50 mg/kg): all the mice died
9 | S=C(S)N1CCCC1 [PDTC, pyrrolidine dithiocarbamate, reference compound] |  |  |  |  |  |  |  |  |  |  | IC50 (SV40 promoter; SW480/SV40-Luc cells, luciferase expression, read-out: SV40 promoter inhibitory activity IC50): > 10 µg/mL; IC50 (NFκB; SW480/NRE-Luc cells, 50 ng/mL TNFα, luciferase expression, read-out: NFκB inhibitory activity IC50): 2.4 µg/mL (≈ 16.3 µM)
10 | (S)-2-chloro-6,7-dimethoxy-9,10,11,12,12a,13-hexahydro-9a-aza-cyclopenta[b]triphenylene-3-ol methanesulfonate [Compound 21] |  |  |  |  |  | 0.008 µg/mL | 0.0067 µg/mL | >1 µg/mL | 0.0054 µg/mL | 0.0068 µg/mL | 
